Where “and” joins values, the source holds several entries; their conditions need not be identical. Equal values may be shown once. Read-outs that look alike come from different tables or passages of the source.
Legend:
[1] = test system: SARS-CoV-2; experiment: microbe, parasite or virus in culture; assay type: cell-based; conditions: for EC50: Severe acute respiratory syndrome coronavirus 2, Vero C1008, read-out: SARS-CoV-2 Vero E6 EC50
[2] = target: T1, SARS-CoV-2 3CL protease (Severe acute respiratory syndrome coronavirus 2, UniProt P0DTD1); experiment: biochemical
[3] = target: T1, SARS-CoV-2 3CL protease; experiment: biochemical; conditions: for kinact/KI: read-out: SARS-CoV-2 3CLpro kinact/KI
[4] = target: T1, SARS-CoV-2 3CL protease; assay type: binding
[5] = target: T1, SARS-CoV-2 3CL protease; assay type: binding; remark: listed apart in the source
[6] = test system: human chymotrypsin; experiment: Chymotrypsin activity assay (Panc-1 cell lysate); assay type: biochemical
[7] = test system: Influenza A H1N1 (strain: California/07/2009); experiment: microbe, parasite or virus in culture; assay type: cell-based; conditions: Influenza A virus, H1N1, MDCK, read-out: Influenza A (H1N1) MDCK EC50
[8] = target: T1, SARS-CoV-2 3CL protease; experiment: cell-based
[9] = 20 nM protease, read-out: SARS-CoV-2 3CLpro IC50
[10] = Concentration of inhibitor (nM) 0.19382
[11] = Concentration of inhibitor (nM) 0.49485
[12] = Concentration of inhibitor (nM) 0.79588
[13] = Concentration of inhibitor (nM) 1.09691
[14] = Concentration of inhibitor (nM) 1.39794
[15] = Concentration of inhibitor (nM) 1.69897
[16] = Concentration of inhibitor (nM) 2
[17] = Concentration of inhibitor (nM) 2.30103
[18] = Concentration of inhibitor (nM) 2.60206
[19] = Concentration of inhibitor (nM) -0.10721
[20] = Concentration of inhibitor (nM) -0.40824

SMILES: O=C(N[C@@H](CC1CCCCC1)C(=O)N[C@@H](C[C@@H]1CCNC1=O)C(O)S(=O)(=O)O)OCc1cccc(Cl)c1 (stereo partly shown) [EB48]
- EC50 [1]: 16000 nM
- IC50 [2, 9]: 200 nM
- normalized activity, dose-response curve (Figure S16) [2, 10]: 110.351 and 97.4198
- normalized activity, dose-response curve (Figure S16) [2, 11]: 103.827 and 92.511
- normalized activity, dose-response curve (Figure S16) [2, 12]: 102.384 and 88.7351
- normalized activity, dose-response curve (Figure S16) [2, 13]: 98.7453 and 87.9169
- normalized activity, dose-response curve (Figure S16) [2, 14]: 87.2647 and 81.1831
- normalized activity, dose-response curve (Figure S16) [2, 15]: 80.9285 and 77.1554
- normalized activity, dose-response curve (Figure S16) [2, 16]: 69.8871 and 61.2964
- normalized activity, dose-response curve (Figure S16) [2, 17]: 58.4065 and 46.4443
- normalized activity, dose-response curve (Figure S16) [2, 18]: 43.601 and 36.7527
- normalized activity, dose-response curve (Figure S16) [2, 19]: 108.281 and 111.58
- normalized activity, dose-response curve (Figure S16) [2, 20]: 100
- observed inactivation rate vs compound concentration (Figure S19, replicate values) [3]: 0.0858 and 0.04 and 0.095 and 0.0226 and 0.0022 and 0.0296 and 0.1194 and 0.0166 and 0.0446 and 0.0488 and 0.0144 and 0.0572 and 0.0269 and -0.02233 and 0.0225 and 0.0208 and 0.0151 and 0.0309
- kinact/KI [3]: 35000 M⁻¹ s⁻¹
- binding to 3CL protease by mass spectrometry (in words) [4]: blocked the covalent binding of 10 equivalents of compound 4

SMILES: O=C(Oc1cncc(Cl)c1)c1cccs1 [MAC-5576, reference compound]
- % SARS-CoV-2 inhibition [1]: -2%
- EC50, inhibition of SARS-CoV-2 viral replication [1]: did not
- IC50 ([2]; IC50): 93 nM
- IC50 ([2]; SARS-CoV-2 3CLpro IC50): 10 nM
- binding stoichiometry [5]: 1.2 ± 0.2
- binding to 3CL protease by mass spectrometry (in words) [4]: one-to-one complex
- Normalized chymotrypsin activity [6]: 1.078 and 0.9826 and 0.9946

SMILES: NC(=O)c1ncn([C@@H]2O[C@H](CO)[C@@H](O)[C@H]2O)n1 [Ribavirin, reference compound]
- EC50 [7]: 3200 nM

SMILES: O=C(N[C@@H](CC1CCCCC1)C(=O)N[C@@H](C[C@@H]1CCNC1=O)C(O)S(=O)(=O)O)OCc1ccccc1 (stereo partly shown) [SL-4-241]
- EC50 [1]: 17000 nM
- IC50 [2, 9]: 75 nM
- normalized activity, dose-response curve (Figure S16) [2, 10]: 94.2892 and 94.3168
- normalized activity, dose-response curve (Figure S16) [2, 11]: 87.5254 and 99.9152
- normalized activity, dose-response curve (Figure S16) [2, 12]: 89.3075 and 94.6561
- normalized activity, dose-response curve (Figure S16) [2, 13]: 90.077 and 87.1492
- normalized activity, dose-response curve (Figure S16) [2, 14]: 78.3315 and 75.5284
- normalized activity, dose-response curve (Figure S16) [2, 15]: 69.502 and 62.8473
- normalized activity, dose-response curve (Figure S16) [2, 16]: 41.1102 and 41.9808
- normalized activity, dose-response curve (Figure S16) [2, 17]: 10.8147 and 10.0871
- normalized activity, dose-response curve (Figure S16) [2, 18]: 3.241 and 2.3258
- normalized activity, dose-response curve (Figure S16) [2, 19]: 98.5824 and 101.484
- normalized activity, dose-response curve (Figure S16) [2, 20]: 100
- observed inactivation rate vs compound concentration (Figure S19, replicate values) [3]: 0.0986 and 0.0638 and 0.0852 and 0.1375 and 0.0874 and 0.0292 and 0.1342 and 0.0676 and 0.0349 and 0.0089 and 0.0058 and 0.057 and 0.065 and 0.0135 and 0.036 and 0.0158 and 0.0274 and 0.003 and 0.0091 and 0.01 and -0.00355
- kinact/KI [3]: 23300 M⁻¹ s⁻¹
- binding to 3CL protease by mass spectrometry (in words) [4]: blocked the covalent binding of 10 equivalents of compound 4

SMILES: Cc1ncc(C(=O)Oc2cncc(Br)c2)s1 [Z43]
- % SARS-CoV-2 3CL activity ([2]; 20 nM protease, log10[nM] 0.19382, replicates): 81.5961% and 71.2676%
- % SARS-CoV-2 3CL activity ([2]; 20 nM protease, log10[nM] 0.49485, replicates): 59.9348% and 65.0704%
- % SARS-CoV-2 3CL activity ([2]; 20 nM protease, log10[nM] 0.79588, replicates): 59.9348% and 45.6338%
- % SARS-CoV-2 3CL activity ([2]; 20 nM protease, log10[nM] 1.09691, replicates): 45.6026% and 45.2113%
- % SARS-CoV-2 3CL activity ([2]; 20 nM protease, log10[nM] 1.39794, replicates): 33.0619% and 25.9155%
- % SARS-CoV-2 3CL activity ([2]; 20 nM protease, log10[nM] 1.69897, replicates): 9.772% and 20%
- % SARS-CoV-2 3CL activity ([2]; 20 nM protease, log10[nM] 2, replicates): -2.443% and 0.9859%
- % SARS-CoV-2 3CL activity ([2]; 20 nM protease, log10[nM] 2.30103, replicates): -12.7036% and 7.042%
- % SARS-CoV-2 3CL activity ([2]; 20 nM protease, log10[nM] 2.60206, replicates): -11.2378% and 5.775%
- % SARS-CoV-2 3CL activity ([2]; 20 nM protease, log10[nM] 2.90309, replicates): 0%
- % SARS-CoV-2 3CL activity ([2]; 20 nM protease, log10[nM] -0.10721, replicates): 77.6873% and 77.6056%
- % SARS-CoV-2 3CL activity ([2]; 20 nM protease, log10[nM] -0.40824, replicates): 100%
- IC50 [2, 9]: 14 nM
- Normalized SARS-CoV-2 3CL protease activity ([2]; 0.2 µM protease with 50 µM tested compound, replicates): 0.007869 and 0.001311 and 0.005246
- Absorbance (crystal violet), SARS-CoV-2 3CLpro [8]: 0.1361 and 0.1268

— paper PMC8989888, “Development of optimized drug-like small molecule inhibitors of the SARS-CoV-2 3CL protease for treatment of COVID-19” (Nature Communications, 2022)
